The values that follow are results of earlier work, collected in US20250127711A1, “COMPOSITION AND METHOD FOR TREATING FUNGAL SKIN CONDITIONS AND INFLAMMATION” (CMPD Licensing, LLC, priority 2016, published 2025).

Molecules are shown by their SMILES.

For series [1], the system named is mineralocorticoid activity.

Turning to `C[C@H]1C[C@H]2[C@@H]3CCC4=CC(=O)C=C[C@]4(C)[C@@]3(F)[C@@H](O)C[C@]2(C)[C@@]1(O)C(=O)CCl` [Clobetasol], the glucocorticoid activity entry in the series with glucocorticoid activity is given as “high degree”. Also, the mineralocorticoid activity entry in series [1] was “slight degree”.
Turning to `CC(=O)OCC(=O)[C@@]12OC(C)(C)O[C@@H]1C[C@H]1[C@@H]3C[C@H](F)C4=CC(=O)C=C[C@]4(C)[C@@]3(F)[C@@H](O)C[C@@]12C` [Fluocinonide], the solubility in ethanol result (ethanol) is given as “slightly soluble”. Besides, the solubility in water result (water) is reported as “practically insoluble”.
